Experimental findings from ChEMBL document CHEMBL1914332, “Marine diterpene glycosides” (Bioorg Med Chem, 2011) are described below.

Molecules are shown by their SMILES.

This assay has as its system MCF7. Kind of assay: Antimitotic activity in human MCF7 cells assessed as mitotic arrest after 16 to 20 hrs by ELISA method. The assay is classed as functional, cell-based. For orientation: An ELISA detects its analyte on a solid surface through an enzyme-linked reagent.
The term IC50 denotes the concentration that gives 50% inhibition. For the compound `CO[C@]12CC[C@](C)(O1)[C@@H](OC(=O)/C=C/c1cn(C)cn1)C[C@@H]1[C@H](/C=C\2CO[C@@H]2OC[C@@H](O)[C@@H](O)[C@@H]2OC(C)=O)[C@@H](C(C)C)CC[C@@H]1C` [TETRAHYDROELEUTHEROBIN], the half-maximal inhibitory concentration (IC50) was 200 nM.

Consider `CCO[C@]12C=C[C@](C)(O1)[C@@H](OC(=O)/C=C/c1cn(C)cn1)C[C@H]1C(CO)=CC[C@H](C(C)C)[C@H]1/C=C\2CO[C@@H]1OC[C@@H](O)[C@@H](O)[C@@H]1OC(C)=O`, for which the IC50 was 20 nM.

With `CO[C@]12C=C[C@](C)(O1)[C@@H](OC(=O)/C=C/c1cn(C)cn1)C[C@@H]1[C@H](/C=C\2CO[C@@H]2OC[C@@H](O)[C@@H](O)[C@@H]2OC(C)=O)[C@@H](C(C)C)C[C@@H]2O[C@@]21C`, the concentration for half-maximal inhibition (IC50) came out at 30 nM. Then `CC(=O)O[C@@H]1[C@H](OC/C2=C/[C@@H]3[C@@H](C(C)C)CC=C(C)[C@@H]3C[C@H](OC(=O)/C=C/c3cn(C)cn3)[C@]3(C)C=C[C@@]2(OCC(C)(C)CO)O3)OC[C@@H](O)[C@H]1O`, with 80 nM. Regarding `CO[C@]12C=C[C@](C)(O1)[C@@H](OC(=O)/C=C/c1cn(C)cn1)C[C@H]1C(C)=CC[C@H](C(C)C)[C@H]1/C=C\2CO[C@@H]1OC[C@@H](O)[C@@H](O)[C@@H]1OC(C)=O` [ELEUTHEROBIN], the half-maximal inhibitory concentration (IC50) was determined as 100 nM. Take `CC(=O)O[C@@H]1[C@H](OC/C2=C/[C@@H]3[C@@H](C(C)C)CC=C(C)[C@@H]3C[C@H](OC(=O)/C=C/c3cn(C)cn3)[C@]3(C)C=C[C@@]2(O)O3)OC[C@@H](O)[C@H]1O` [DESMETHYLELEUTHEROBIN]: the half-inhibitory concentration (IC50) came to 20 nM.

As to `CO[C@]12C=C[C@](C)(O1)[C@@H](OC(=O)/C=C/c1cn(C)cn1)C[C@@H]1[C@H](/C=C\2CO[C@@H]2OC[C@@H](O)[C@@H](O)[C@@H]2OC(C)=O)[C@@H](C(C)C)C=C[C@@]1(C)O` [CARIBAEOSIDE], the concentration for half-maximal inhibition (IC50) amounted to 20000 nM.

As for `CO[C@]12C=C[C@](C)(O1)[C@@H](OC(=O)CCc1cn(C)cn1)C[C@H]1C(C)=CC[C@H](C(C)C)[C@H]1/C=C\2CO[C@@H]1OC[C@@H](O)[C@@H](O)[C@@H]1OC(C)=O`, the IC50 is 20000 nM. Turning to `CC(=O)O[C@@H]1[C@H](OC/C2=C/[C@@H]3[C@@H](C(C)C)CC=C(C)[C@@H]3C[C@H](OC(=O)/C=C/c3cn(C)cn3)[C@]3(C)C=C[C@@]2(OCCO)O3)OC[C@@H](O)[C@H]1O`, the IC50 was determined as 20 nM. Under `CO[C@]12C=C[C@](C)(O1)[C@@H](OC(=O)/C=C/c1cn(C)cn1)C[C@H]1C(C)=CC[C@H](C(C)C)[C@H]1/C=C\2CO[C@@H]1OC[C@@H](O)[C@@H](OC(C)=O)[C@@H]1O` [ISOELEUTHEROBIN A] stands 50 nM; under `CO[C@]12C=C[C@](C)(O1)[C@@H](OC(=O)/C=C/c1cn(C)cn1)C[C@@H]1[C@H](/C=C\2CO[C@@H]2OC[C@@H](O)[C@@H](O)[C@@H]2OC(C)=O)[C@@H](C(C)C)C[C@H]2O[C@@]12C`, 300 nM; under `CO[C@]12CC[C@](C)(O1)[C@@H](OC(=O)CCc1cn(C)cn1)C[C@@H]1[C@H](/C=C\2CO[C@@H]2OC[C@@H](O)[C@@H](O)[C@@H]2OC(C)=O)[C@@H](C(C)C)CC[C@@H]1C`, greater than 10000 nM.
